Patent publication US10815247B2, “Functionalized NANOLUC inhibitors” (PROMEGA CORPORATION, priority 2016, dated 2020)
Entries after “also recorded” stand apart in the source; their conditions may differ.

Key:
Nluc-HT fusion protein = experiment: Inhibition of Nluc luciferase by JRW-0308 (FIG. 1); format: biochemical; conditions: 0.05 nM protein in PBS/0.05% BSA, 2 hours at room temperature, furimazine 10 μM
[1] = system: Nluc-HT fusion protein in HeLa cells; experiment: Inhibition of Nluc luciferase in cells (FIG. 2A, 2B); format: cell-based; conditions: 2 hours at 37° C., furimazine 190 μM
[2] = target: Nluc-HT-618 in HeLa cells (Oplophorus gracilirostris, UniProt Q9GV45, A31E/A60N/A81I/F95D/I117V/K70R/L54V/L99Q/M102K/N193R/P142E/Q151K/Q38R/Q45L/V71I/Y165I); experiment: Inhibition of Nluc luciferase in cells (FIG. 2B); conditions: HeLa cells pre-labelled with 500 nM NanoBRET 618 ligand, 2 hours at 37° C., furimazine 190 μM
Description: (§4) HeLa cells were reverse transfected with expression constructs for Nluc or Nluc-HT, plated (20,000 cells/100 μL growth medium) and incubated for 24 hours. […] HeLa cells were reverse transfected with expression constructs for Nluc or Nluc-HT, plated (20,000 cells/100 μL growth medium), and incubated for 24 hours.

[3] = target: Nluc-HT-TMR (Nluc-HT conjugated to TMR chloroalkane) (Oplophorus gracilirostris, UniProt Q9GV45, A31E/A60N/A81I/F95D/I117V/K70R/L54V/L99Q/M102K/N193R/P142E/Q151K/Q38R/Q45L/V71I/Y165I); experiment: Inhibition of Nluc luciferase by JRW-0308 (FIG. 1); conditions: 0.05 nM protein in PBS/0.05% BSA, 2 hours at room temperature, furimazine 10 μM
Description: (§5) Samples were analyzed after addition of furimazine (10 μM final concentration) using a BMG Clariostar plate reader.

Nluc = Nluc (Oplophorus gracilirostris, UniProt Q9GV45, A31E/A60N/A81I/F95D/I117V/K70R/L54V/L99Q/M102K/N193R/P142E/Q151K/Q38R/Q45L/V71I/Y165I); experiment: Inhibition of Nluc luciferase by JRW-0308 (FIG. 1); conditions: 0.05 nM protein in PBS/0.05% BSA, 2 hours at room temperature, furimazine 10 μM
Description: as §5

NanoLuc [4] = target: T1, NanoLuc (Oplophorus gracilirostris, UniProt Q9GV45, A31E/A60N/A81I/F95D/I117V/K70R/L54V/L99Q/M102K/N193R/P142E/Q151K/Q38R/Q45L/V71I/Y165I); experiment: Inhibitor IC50 determination; format: biochemical
Description: The following example provides the IC50 values for the compounds disclosed herein. NANOLUC® enzyme was diluted to 0.4 ng/ml in CO2 independent media+10% FBS to make the detection reagent. A 3× dilution series of each inhibitor was then made in the detection reagent. A “no inhibitor” control was also made for each sample. 50 ul of each inhibitor dilution was mixed with 50 ul of NanoGlo® buffer containing 20 μM furimazine (final furimazine concentration is 10 μM, which is at Km.), and luminescence was measured. Each sample was normalized to the “no inhibitor” control. The IC50 values were then determined using GraphPad Prism (log[inhibitor] vs. normalized response).

Nluc in HeLa cells = Nluc in HeLa cells (Oplophorus gracilirostris, UniProt Q9GV45, A31E/A60N/A81I/F95D/I117V/K70R/L54V/L99Q/M102K/N193R/P142E/Q151K/Q38R/Q45L/V71I/Y165I); experiment: Inhibition of Nluc luciferase in cells (FIG. 2A); conditions: 2 hours at 37° C., furimazine 190 μM
Description: as §4

NanoLuc [5] = target: T1, NanoLuc; conditions: inhibitor diluted to 3 uM, NanoLuc 0.4 ng/ml, 100 uM furimazine, read at two minute intervals
Description: Inhibitors were diluted to 3 uM into OptiMEM+0.1% FBS. NanoLuc was diluted to 0.4 ng/ml into NanoGlo® buffer+100 uM furimazine. 50 ul of each inhibitor was added to 50 ul of the NanoLuc/furimazine/NanoGlo® solution. Samples were immediately placed in a GloMax Multi+ set to read in kinetic mode at two minute intervals.
Inhibitors were diluted to 3 uM into OptiMEM+0.1% FBS. NanoLuc was diluted to 0.4 ng/ml into NanoGlo® buffer+100 uM furimazine. 50 ul of each inhibitor was added to 50 ul of the NanoLuc/furimazine/NanoGlo® solution. Samples were immediately placed in a GloMax® Multi+ set to read in kinetic mode at two minute intervals.

NanoLuc [6] = target: T1, NanoLuc; experiment: Multiplexing luciferases with the same wavelength (FIG. 11); format: biochemical; conditions: 100 uM JRW-0552 solution in NanoGlo buffer, 0.4 ng/ml NanoLuc, kinetic read
Description: (§1) Three conditions are represented in this figure: 1) NanoLuc with JRW-0552; 2) NanoLuc and HiBiT with JRW-0552; and 3) NanoLuc and LgBiT with JRW-0552. At the 50 minute mark, an addition is done in each condition: 1) furimazine; 2) furimazine; and 3) LgBiT, furimazine, and HiBiT, respectively.
(§2) The following solutions were prepared in TBS+20 uM furimazine: 1) 0.4 ng/ml NanoLuc, 2) 0.4 ng/ml NanoLuc+0.2 nM HaloTag-HiBiT, 3) 0.4 ng/ml NanoLuc+200 nM LgBiT. 50 ul of each solution was combined in triplicate with a solution containing 100 uM JRW-0552 diluted into NanoGlo® buffer.
(§3) After 50 minutes, 100 ul of the following solutions were added to the corresponding samples: 1) NanoGlo® buffer+50 uM furimazine, 2) NanoGlo® buffer+50 uM furimazine+200 nM LgBiT, 3) NanoGlo® buffer+50 uM furimazine+0.2 nM HaloTag-HiBiT.

[7] = system: NanoBiT (LgBiT and HaloTag-HiBiT); experiment: as above; format: biochemical; conditions: 100 uM JRW-0552 solution; LgBiT 200 nM, HaloTag-HiBiT 0.2 nM added after 50 minutes
Description: as §1, §2, §3

Cetux-Fab-Nluc = experiment: EGFR/Cetuximab binding assay with inhibitor and PBS wash (FIG. 9); format: biochemical; conditions: 1 μM inhibitor for 5 or 30 minutes, PBS wash 0, 10, 30, or 60 minutes, furimazine 10 μM
Description: Cetux-Fab-Nluc competes with Cetuximab for binding of EGFR. […] Following the first reading, 1 μM inhibitor is added for a period of 5 minutes or 30 minutes. The plates were subsequently washed with PBS for 0, 10, 30, or 60 minutes.

NanoLuc [8] = target: T1, NanoLuc; experiment: Suicide inhibition: displacement of inhibitor by furimazine upon dilution (FIG. 7); conditions: 10 μM Nluc + 10 μM inhibitor 30 minutes at RT, diluted to 10 pM, furimazine 10 uM
Description: Following dilution, 50 ul of the dilution was combined with 50 ul of NanoGlo® assay buffer.
Following dilution, 50 ul of the dilution was combined with 50 ul of NanoGlo® assay buffer. Final furimazine concentration was 10 uM.

T1 sequence (Q9GV45 28-196 with tags or gaps with the stated changes limits assumed): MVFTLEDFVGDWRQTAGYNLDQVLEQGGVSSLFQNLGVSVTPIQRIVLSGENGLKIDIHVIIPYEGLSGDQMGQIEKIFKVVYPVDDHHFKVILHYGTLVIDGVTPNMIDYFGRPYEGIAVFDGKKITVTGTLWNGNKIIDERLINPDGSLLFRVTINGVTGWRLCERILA
Nluc in HeLa cells, sequence (Q9GV45 28-196 with tags or gaps with the stated changes limits assumed): as above
Nluc-HT-TMR (Nluc-HT conjugated to TMR chloroalkane), sequence (Q9GV45 28-196 with tags or gaps with the stated changes limits assumed): as above
Nluc, sequence (Q9GV45 28-196 with tags or gaps with the stated changes limits assumed): as above
Nluc-HT-618 in HeLa cells, sequence (Q9GV45 28-196 with tags or gaps with the stated changes limits assumed): as above

Compound: CCN(C(=O)Cn1c(C(=O)N[C@H]2CC[C@H](C(=O)NCCCCCCNC(=O)OCCOCCOCCOC(=O)NCCOCCOCCCCCCCl)CC2)cc2sccc21)c1cccc(C)c1 [JRW-0308]
- inhibition of Nluc-HT fusion protein (Nluc-HT fusion protein): potently inhibits
- inhibition of Nluc-HT fusion protein in cells [1]: potently inhibits
- inhibition of Nluc-HT-618 in cells [2]: higher concentrations of JRW-0308 are necessary
- inhibition of Nluc-HT-TMR [3]: higher concentrations are required
- inhibition of Nluc alone (Nluc): higher concentrations are required
- IC50 (NanoLuc [4]): 0.022 µM
- inhibition of Nluc in cells (Nluc in HeLa cells): higher concentrations are required

Compound: CCN(C(=O)Cn1c(C(=O)N[C@H]2CC[C@H](C(=O)NCCCCCCCC(=O)NCCOCCOCCC(=O)ON3C(=O)CCC3=O)CC2)cc2sccc21)c1cccc(C)c1 [JRW-0544, 2,5-dioxopyrrolidin-1-yl 1-(trans-4-(4-(2-(ethyl(m-tolyl)amino)-2-oxoethyl)-4H-thieno[3,2-b]pyrrole-5-carboxamido)cyclohexyl)-1,10-dioxo-14,17-dioxa-2,11-diazaicosan-20-oate]
- Nluc inhibition over time (kinetic light output) (NanoLuc [5]): steady state binding
- IC50 (NanoLuc [4]): 0.013 µM

Compound: CCN(C(=O)Cn1c(C(=O)N[C@H]2CC[C@H](C(=O)OC)CC2)cc2sccc21)c1cccc(CCCBr)c1 [JRW-0548, methyl trans-4-(4-(2-((3-(3-bromopropyl)phenyl)(ethyl)amino)-2-oxoethyl)-4H-thieno[3,2-b]pyrrole-5-carboxamido)cyclohexane-1-carboxylate]
- Nluc inhibition over time (kinetic light output) (NanoLuc [5]): steady state inhibition
- IC50 (NanoLuc [4]): 0.099 µM

Compound: CCN(C(=O)Cn1c(C(=O)N[C@H]2CC[C@H](C(=O)NCCCCCCCC(=O)ON3C(=O)CCC3=O)CC2)cc2sccc21)c1cccc(C)c1 [JRW-0552]
- inhibition of NanoLuc signal (NanoLuc [6]): selectively inhibits
- activity of NanoBiT configurations in presence of inhibitor [7]: remain operational
- reversibility of inhibition after PBS wash (Cetux-Fab-Nluc): irreversible
- displacement of inhibitor by furimazine upon dilution (NanoLuc [8]): not displaced
- reversibility of Nluc inhibition (NanoLuc [8]): irreversible inhibition; also recorded: irreversibly inhibit
- Nluc inhibition over time (kinetic light output) (NanoLuc [5]): time dependent inhibition
- IC50 (NanoLuc [4]): 0.0029 µM
